Data taken from patent US20150196022A1, “ABSORBENT PAD HAVING THREE OR MORE MODULES TO ENHANCE PRESERVATION OF FLOWERS” (Paper-Pak Industries, priority 2014, published 2015).

Assay: Na2S2O5 in an open environment: SO2 concentration in air measured daily
Format: physicochemical
Experimental: FIG. 12A and FIG. 12B show the results of a test that was performed to establish how Na2S2O5 reacts with the environment, and the effect of changes in relative humidity.
0.1 g of Na2S2O5 on sampling “boats” were placed on top of a counter; i.e., in an “open” environment. The concentration of SO2 gas (in parts per million, ppm) in the air at about 2.5 cm (about 1″) above the Na2S2O5 was measured daily for more than 50 days of testing. The relative humidity was also measured for each day of testing.
This is in agreement with the known chemistry of Na2S2O5.

O=S([O-])S(=O)(=O)[O-].[Na+].[Na+] [Na2S2O5, sodium metabisulfite]
average SO2 concentration generated (0.1 g Na2S2O5, open environment, about 2.5 cm above sample, up to 50 days): 0.5 ppm | duration of continuous SO2 generation (summary of the several tests): more than 50 days
